Results as given in patent US8129527B2, “Analogs of dehydrophenylahistins and their therapeutic use” (Nereus Pharmacuticals, Inc., priority 2006, dated 2012).
Values after ≈ are worked out from the molar mass of the structure shown. Values joined by “and” are separate entries in the source; they are usually repeats but may differ in a detail not shown here. Equal entries are not always repeated.

Columns and labels:
[1] = system: MES-SA human uterine sarcoma; experiment: Cell growth inhibition assay, resazurin (Example 11); format: cell-based; conditions: mean ± standard deviation of three independent experiments
Experimental: (§1) Human uterine sarcoma (MES-SA; CRL-1976), its multidrug resistant derivative (MES-SA/Dx5; CRL-1977), human acute promyelocytic leukemia cells (HL-60; CCL-240) and its multidrug resistant derivative (HL-60/MX2; CRL-2257) were purchased from ATCC and maintained in appropriate culture media. The cells were cultured in an incubator at 37° C. in 5% CO2 and 95% humidified air.
(§2) For cell growth inhibition assays, MES-SA and MES-SA/Dx5 cells were both seeded at 3×10^3 cells/well in 90 μl complete media into 96 well (Corning; 3904) black-walled, clear-bottom tissue culture plates and the plates were incubated overnight to allow cells to establish and enter log phase growth. HL-60 and HL-60/MX2 cells were both seeded at 5×10^4 cells/well in 90 μl complete media into 96 well plates on the day of compound addition. 20 mM stock solutions of the compounds were prepared in 100% DMSO and stored at −80° C. […] Ten μl volumes of the 10× serial dilutions were added to the test wells in triplicate and the plates returned to the incubator for 48 hours. The final concentration of DMSO was 0.25% in all samples.
(§3) Following 48 hours of drug exposure, 10 μl of 0.2 mg/ml resazurin (obtained from Sigma-Aldrich Chemical Co.) in Mg^2+, Ca^2+ free phosphate buffered saline was added to each well and the plates were returned to the incubator for 3-6 hours. […] Resazurin dye in medium without cells was used to determine the background, which was subtracted from the data for all experimental wells.
(§4) The multidrug resistant MES-SA/Dx5 tumor cell line was derived from the human uterine sarcoma MES-SA tumor cell line and expresses elevated P-Glycoprotein (P-gp), an ATP dependent efflux pump. The data in Table 19 summarize the growth inhibitory effects of NPI-2421, NPI-2463, NPI-2503, NPI-2504 and NPI-2506 against MES-SA and its multidrug resistant derivative MES-SA/Dx5. Paclitaxel, a known substrate of the P-gp pump was included as a control.

[2] = system: HL-60/MX2 multidrug resistant; experiment: as above; format: cell-based, human
Experimental: as §1, §2, §3
(§5) HL-60/MX2 is a multidrug resistant tumor cell line derived from the human promyelocytic leukemia cell line, HL-60 and expresses reduced topoisomerase II activity. The data presented in Table 20 summarize the growth inhibitory effects of NPI-2421, NPI-2463, NPI-2503, NPI-2504 and NPI-2506 against HL-60 and its multidrug resistant derivative HL-60/MX2. Mitoxantrone, the topoisomerase II targeting agent was included as a control.

[3] = system: HT-29 human colorectal carcinoma cells; experiment: Cell growth inhibition assay, resazurin (Table 3.2); format: cell-based; conditions: Table 3.2, HT-29 cells, read-out: EC50 (M) Mean
In short: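 HT-29 cells seeded at 5×10^3/well overnight, then exposed in triplicate to compounds at final 20 μM to […] (0.25% DMSO) for 48 h at 37° C. Viability read by resazurin reduction after 3-4 h further incubation, with cell-free dye background subtracted.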

[4] = system: MES-SA/Dx5 multidrug resistant; experiment: Cell growth inhibition assay, resazurin (Example 11); format: cell-based, human
Experimental: as §1, §2, §3, §4

[5] = system: MDA-MB-231 breast adenocarcinoma; experiment: as above; format: cell-based; conditions: Homo sapiens, 48 hours, mean ± SD where n ≧ 3
Experimental: (§6) The growth inhibitory activity of NPI-2421, NPI-2463, NPI-2503 and NPI-2504 were determined against selected human (colorectal adenocarcinoma, HT-29; breast adenocarcinoma, MDA-MB-231; non-small cell lung carcinoma, NCI-H292 and prostate carcinomas, PC-3 and DU 145) and mouse (melanoma, B16-F10) tumor cell lines.
(§7) HT-29 (HTB-38), MDA-MB-231 (HTB-26), NCI-H292 (CRL-1848), B16-F10 (CRL-6475), PC-3 (CRL-1435) and DU 145 (HTB-81) cells were all purchased from the ATCC. The cell lines were maintained in their respective ATCC recommended culture media and cultured in an incubator at 37° C. in 5% CO2 and 95% humidified air.
(§8) 20 mM stock solutions of compounds were prepared in 100% DMSO and stored at −80° C. 10× concentrated serial dilutions of the compounds were prepared in B16-F10 cell culture medium for final concentrations ranging from 20 μM to […]. Ten μl volumes of the 10× serial dilutions were added to the test wells in triplicate and the plates returned to the incubator for 48 hours. The final concentration of DMSO was 0.25% in all samples.
as §3

[6] = system: B16-F10 melanoma; experiment: as above; format: cell-based; conditions: Mus musculus, 48 hours, mean ± SD where n ≧ 3
Experimental: as §6, §7, §8, §3

[7] = system: PC-3 prostate carcinoma; experiment: as above; format: cell-based; conditions: Homo sapiens, 48 hours, mean ± SD where n ≧ 3, ** n = 1
Experimental: as §6, §7, §8, §3

[8] = system: HT-29 colorectal adenocarcinoma; experiment: as above; format: cell-based; conditions: Homo sapiens, 48 hours, mean ± SD where n ≧ 3
Experimental: as §6, §7, §8, §3

[9] = system: NCI-H292 non-small cell lung carcinoma; experiment: as above; format: cell-based; conditions: Homo sapiens, 48 hours, mean ± SD where n ≧ 3, ** n = 1
Experimental: as §6, §7, §8, §3

[10] = system: HL-60 human acute promyelocytic leukemia cells; experiment: as above; format: cell-based; conditions: mean values of two independent experiments
Experimental: as §1, §2, §3, §5

[11] = system: HuVEC; experiment: Action on microtubule function, α-tubulin staining; conditions: 2 μM, thirty minutes exposure
[12] = system: MCF-7/ADR (Taxol Resistant) human breast carcinoma; experiment: Drug resistant cell line pair, cytotoxicity (Example 10B); format: cell-based
Text: (§9) 3). Human Breast Carcinoma Cell Line Pair: MCF-7 (Taxol Sensitive) and MCF-7/ADR (Taxol Resistant)

[13] = system: MCF-7 (Taxol Sensitive) human breast carcinoma; experiment: as above; format: cell-based
Text: as §9

[14] = system: MES-SA/Dx5 (Taxol Resistant) human uterine sarcoma; experiment: as above; format: cell-based
Text: (§10) 1) Human Uterine Sarcoma Tumor Cell Line Pair: MES-SA (Taxol Sensitive) and MES-SA/Dx5 (Taxol Resistant).

[15] = system: MES-SA (Taxol Sensitive) human uterine sarcoma; experiment: as above; format: cell-based; conditions: IC50 CsA Pretreat relative to No CsA
Text: as §10

[16] = system: Trichophyton mentagrophytes; experiment: Antifungal susceptibility testing, broth dilution (MIC/MFC); format: cell-based; conditions: Trichophyton mentagrophytes
Experimental: (§11) Specifically, disclosed compounds were evaluated alongside commercially available microtubulin inhibitors as well as recognized antifungal agents. […].
(§12) Microorganisms against which these compounds were tested included: Candida albicans, Candida glabrata, Aspergillus fumigatus, Trichophyton rubrum, Trichophyton mentagrophytes, Epidermophyton floccosum. With the exception of Candida glabrata (one isolate), two isolates of each species were tested.
(§13) Drug concentrations were 0.03-16 μg/ml for the investigational compounds, 0.015-8 μg/ml for itraconazole and griseofulvin.
(§14) The minimum lethal concentration (MLC) was determined by plating […] from the MIC concentration and each concentration above the MIC. […] When a MIC was obtained, a minimum fungicidal concentration (MFC) was determined to assess the fungistatic/fungicidal nature of the compound. […] The compound is scored as fungistatic if the cells are able to resume growth and fungicidal if no regrowth is possible because the compound had killed the organisms.

[17] = system: Epidermophyton floccosum; experiment: as above; format: cell-based
Experimental: as §11, §12, §13, §14

[18] = system: Trichophyton rubrum; experiment: as above; format: cell-based; conditions: Trichophyton rubrum
Experimental: (§15) Specifically, disclosed compounds were evaluated alongside commercially available microtubulin inhibitors as well as recognized antifungal agents.
as §12
(§16) The minimum lethal concentration (MLC) was determined by plating […] from the MIC concentration and each concentration above the MIC. […] When a MIC was obtained, a minimum fungicidal concentration (MFC) was determined to assess the fungistatic/fungicidal nature of the compound.

[19] = system: Aspergillus fumigatus; experiment: as above; format: cell-based; conditions: Aspergillus fumigatus, A. fumigatus isolate #2; read-out: MIC
Experimental: as §15, §12, §16

SMILES: CC(C)(C)c1ocnc1/C=c1\[nH]c(=O)/c(=C/c2c(F)c(F)cc(F)c2F)[nH]c1=O [Compound 2504, tBu-oxadelta-PLH-2,3,5,6-tetrafluoro]
- EC50 [1]: 0.013 ± 0.003 µM
- EC50 ([2]; Homo sapiens, HL60/MX2, HL-60/MX2, mean values of two independent experiments): 0.013 µM
- cytotoxic activity against both HL-60 and HL-60/MX2 ([2]; in words): retained cytotoxic activity
- Fold change ([2]; ratio of EC50 values (HL-60/MX2:HL-60)): 0.4
- EC50 [3]: 1.48e-08 M
- EC50 ([4]; Homo sapiens, MES-SA/Dx5, mean ± standard deviation of three independent experiments): 0.014 ± 0.003 µM
- cytotoxic activity against both MES-SA and MES-SA/Dx5 ([4]; in words): retained equivalent cytotoxic activity
- Fold change ([4]; ratio of EC50 values (MES-SA/Dx5:MES-SA)): 1.1
- EC50 [5]: 0.017 µM
- EC50 [6]: 0.014 ± 0.003 µM
- EC50 [7]: > 2 µM
- EC50 [8]: 0.011 µM
- EC50 [9]: 0.042 µM
- EC50 [10]: 0.03 µM

SMILES: CC(=O)O[C@H]1C(=O)[C@@]2(C)[C@H]([C@H](OC(=O)c3ccccc3)[C@]3(O)C[C@H](OC(=O)[C@H](O)[C@@H](NC(=O)c4ccccc4)c4ccccc4)C(C)=C1C3(C)C)[C@]1(OC(C)=O)CO[C@@H]1C[C@@H]2O [Taxol, reference compound]
- microtubule depolymerization in HuVEC cells [11]: did not induce microtubule depolymerization
- IC50 ([12]; Homo sapiens, NCI/ADR-RES, read-out: MCF-7/ADR Resistant IC 50 nM, Table 15): > 100 nM
- MCF-7/ADR Resistant Ratio to Sensitive ([12]; Table 15): >>38
- potency in resistant MCF-7/ADR vs sensitive MCF-7 ([12]; in words): virtually inactive in the resistant cell line
- IC50 ([13]; Homo sapiens, MCF7/Taxol, Table 15, read-out: MCF-7 Sensitive IC50): 0.0026 µM
- potency in the sensitive MCF-7 cell line ([13]; in words): low nanomolar potency
- effect of Cyclosporin A (CsA) treatment ([14]; CsA pretreatment): restored the sensitivity to taxol
- potency in the resistant MES-SA/DX5 line vs the sensitive line ([14]; in words): virtually inactive
- Ratio No CsA [15]: 0.6 and 0.4

SMILES: COC1=CC(=O)C[C@@H](C)[C@]12Oc1c(Cl)c(OC)cc(OC)c1C2=O [griseofulvin, Griseofulvin, reference compound]
- MIC ([16]; T. mentagrophytes isolate #1): 1 mg/L (≈ 2.83 µM)
- MIC ([16]; T. mentagrophytes isolate #2): 2 mg/L (≈ 5.67 µM)
- MIC ([17]; E. floccosum isolate #1): 2 mg/L (≈ 5.67 µM)
- MIC ([17]; E. floccosum isolate #2): 4 mg/L (≈ 11.3 µM)
- MIC ([18]; T. rubrum isolate #1): 0.5 mg/L (≈ 1.42 µM)
- MIC ([18]; T. rubrum isolate #2): < 0.015 mg/L
- MIC [19]: 0.5 mg/L (≈ 1.42 µM)
